The molecules below were run on MDA175-VII (NRG1-DOC4 fusion) cells (assay: Cell viability by Cell Titer Glo assay, 72 hours treatment). Conditions: 72 h, read-out: Average IC50.
Assay type: cell-based
Description: FIG. 1B. Representative dose response curves of MDA175-VII (NRG1-DOC4 fusion) treated with the indicated inhibitors for 72 hours. Cell viability was determined by Cell Titer Glo Assay.
Cell viability was determined by the Cell Titer Glo assay.
Drug screening and IC50 determination. Drug screening is performed as previously described. Briefly, cells are plated in 384-well plates (Greiner Bio-One) at 2000-3000 cells per well in technical triplicate. Seven different concentrations of covalent EGFR/HER2 TKIs and/or HER2/HER3 targeting antibodies or DMSO vehicle are added to reach a final volume of 40 μL per well. After 72 hours, 11 μL of Cell Titer Glo (Promega) is added to each well. Plates are incubated for a minimum of 10 minutes, and bioluminescence is determined using a FLUOstar OPTIMA plate reader (BMG LABTECH). Raw bioluminescence values are normalized to DMSO control treated cells, and values are plotted in GraphPad Prism. […] Drug screens are performed in technical triplicate on each plate and either duplicate or triplicate biological replicates.

Molecule | IC50 [nM]
CCOc1cc2ncc(C#N)c(Nc3ccc(OCc4ccccn4)c(Cl)c3)c2cc1NC(=O)/C=C/CN(C)C [Neratinib, neratinib] | 0.747

Same assay, conditions: MDA175-VII (NRG1-DOC4 fusion) cells, single HER2 inhibitor, 72 hours; read-out: Average IC50

Molecule | IC50 [nM]
CN(C)C/C=C/C(=O)Nc1cc2c(Nc3ccc(F)c(Cl)c3)ncnc2cc1O[C@H]1CCOC1 [Afatinib, afatinib] | 0.891
COc1cc2ncnc(Nc3ccc(F)c(Cl)c3)c2cc1NC(=O)/C=C/CN1CCCCC1 [Dacomitinib, dacomitinib] | 1.18
C#Cc1cccc(Nc2ncnc3cc(OCCOC)c(OCCOC)cc23)c1 [Erlotinib, erlotinib] | 1440
C=CC(=O)N1CCC[C@@H](n2nc(-c3ccc(Oc4ccccc4)cc3)c3c(N)ncnc32)C1 [Ibrutinib, ibrutinib] | 86.9
CS(=O)(=O)CCNCc1ccc(-c2ccc3ncnc(Nc4ccc(OCc5cccc(F)c5)c(Cl)c4)c3c2)o1 [Lapatinib, lapatinib] | 98.6
C=CC(=O)Nc1cc(Nc2nccc(-c3cn(C)c4ccccc34)n2)c(OC)cc1N(C)CCN(C)C [Osimertinib, osimertinib] | 459
CCOc1cc2ncc(C#N)c(Nc3ccc(OCc4ccccn4)c(Cl)c3)c2cc1NC(=O)/C=C/[C@H]1CCCN1C [Pyrotinib, pyrotinib] | 10.4
CNC(=O)CN1CCC(Oc2cc3c(Nc4cccc(Cl)c4F)ncnc3cc2OC)CC1 [Sapitinib, sapitinib] | 316

Same assay, conditions: MDA175-VII cells, anti-HER2 antibody alone (+DMSO), 72 hours; read-out: Average IC50

Molecule | IC50 [nM]
Pertuzumab: recombinant, humanized monoclonal antibody that inhibits dimerization of HER2 | 51.5
T-DM1 | 653

Same assay, conditions: MDA175-VII cells, single agent

Molecule | inhibition of cell viability (in words)
Pertuzumab: recombinant, humanized monoclonal antibody that inhibits dimerization of HER2 | potently inhibited cell viability

Reference: patent US20230112470A1, “USE OF EGFR/HER2 TYROSINE KINASE INHIBITORS AND/OR HER2/HER3 ANTIBODIES FOR THE TREATMENT OF CANCERS WITH NRG1 FUSIONS” (Board of Regents, The University of Texas System, priority 2020, published 2023)
